According to ChEMBL document CHEMBL2086381, “Identification of 4,5-dihydro-4-hydroxygeldanamycins as shunt products of geldanamycin biosynthesis” (J Nat Prod, 2012):
pIC50: −log10 of the molar value.

System: HepG2
Experiment: Cytotoxicity against human HepG2 cells
Type: functional, cell-based

**Q.** How did the pIC50 turn out when `COC1=C2C[C@@H](C)C[C@H](OC)[C@H](O)[C@@H](C)/C=C(\C)[C@H](OC(N)=O)[C@@H](OC)C[C@H](O)/C=C(\C)C(=O)NC(=CC1=O)C2=O` was run?
**A.** 4.98

**Q.** `COC1=C2C[C@@H](C)C[C@H](OC)[C@H](O)[C@@H](C)/C=C(\C)[C@H](OC(N)=O)[C@@H](OC)C[C@@H](O)/C=C(\C)C(=O)NC(=CC1=O)C2=O` was tested. Which pIC50 did it give?
**A.** 4.97

**Q.** With `COC1=C2C[C@@H](C)C[C@H](OC)[C@H](O)[C@@H](C)/C=C(\C)[C@H](OC(N)=O)[C@@H](OC)/C=C\C=C(/C)C(=O)NC(=CC1=O)C2=O` [GELDANAMYCIN] as the molecule, how does the pIC50 read?
**A.** 6.43
